# Reference: patent publication US20250295792A1, “POLYETHYLENE GLYCOL-MODIFIED FORM OF KININ OR DERIVATIVE THEREOF AND PHARMACEUTICAL USE THEREOF” (ZonHon Biopharma Institute, Inc., priority 2022, published 2025)
# Where two headings read alike, the source gives them in different places. Where a SMILES comes first, the peptide text is derived from it. Where no end group is shown, it is not given here. [ ]: non-standard residue; d: D form. M‑SPA‑5K = straight-chain monomethoxy PEG succinimidyl propionate, about 5 kDa; 2Thi = N[C@@H](Cc1cccs1)C(=O)O
# What was measured:
# [1] = test system: middle cerebral artery occlusion (MCAO) cerebral ischemia-reperfusion model; assay: MCAO cerebral ischemia-reperfusion model: neurological deficit score and cerebral infarct size; assay type: in vivo, SD rats; settings: for Neurological deficit symptoms compared with the model group (in words): Example 7, FIG. 7a; for Neurological deficit symptoms compared with the model group (in words) / Cerebral infarct size compared with the model group (in words): intravenous, Edaravone 6 mg/kg, conjugate 3 mg/kg; for Cerebral infarct size compared with the model group (in words): Example 7, FIG. 7b
# Description: SD rats, male, SPF grade, weighing 270-300 g. The middle cerebral artery occlusion (MCAO) of cerebral ischemia-reperfusion model was prepared by using the intraluminal suture method in rats. Animals were anesthetized with gas (isoflurane), and then fixed them in a supine position. The skin was disinfected, and the right common carotid artery, external carotid artery, and internal carotid artery were separated from the midline incision in the neck. The vagus nerve was gently peeled off, and the external carotid artery was ligated and cut. The common carotid artery was clamped near the proximal end, and an incision was made from the distal end of the ligature line of the external carotid artery. The suture (model 2438-A5, purchased from Beijing Xinong Technology Co., LTD.) was inserted and passed through the bifurcation of the common carotid artery into the internal carotid artery. The suture was then slowly inserted until slight resistance was encountered (about 20 mm from the bifurcation), blocking the blood supply to the middle cerebral artery. The neck skin was sutured, disinfected, and the rat was returned to the cage. After 90 minutes of ischemia, the rat was anesthetized again, fixed on the rat board, and the neck skin was cut open to find the suture, which was gently removed. Reperfusion was performed, and the neck skin was sutured, disinfected, and the rat was returned to the cage for feeding.
# The rats were divided into sham operation group, model group (administered PBS intravenously), Edaravone group (administered intravenously, 6 mg/kg), and PEG conjugate of lysyl bradykinin group (administered intravenously, 3 mg/kg). The rats were injected once after 2 hours of reperfusion.
# The modified Bederson method was used to evaluate neurological defect symptoms.
# Animals were anesthetized with 10% chloral hydrate, the brain tissue was removed, the olfactory bulbs, cerebellum and lower brainstem were removed, and the bloodstain on brain surface was washed with […]. After removing surface residual water, the brain tissue was placed at −80° C. for 7 minutes, took out and cut into coronal sections perpendicular to the visual cross plane, and sliced at intervals of 2 mm to the posterior direction. The brain slices were placed in fresh TTC (20 g/L) dye solution prepared with SPSS at 37° C. for 90 minutes. Normal brain tissue was stained deep red, while ischemic brain tissue appeared pale. After washing with SPSS, the brain slices were quickly arranged in sequence from front to back, residual water on the surface was absorbed, and photographed. The image analysis software (Image Tool) was used to delineate the ischemic area (white area) and the right side area on the photos for statistical analysis. The percentage of cerebral infarction area was calculated using the following formula:
# Cerebral infarction area (%)=100×total ischemic area/total right hemisphere area.
# Except for Table 7-6, the dosage of the other groups was 3 mg/kg (all the dosage was calculated based on peptides). The administration methods included intravenous injection and subcutaneous injection, and the injection was given once after 2 hours of reperfusion.
# Based on the same model, the effect of PEG conjugate of lysyl bradykinin variant was investigated by both intravenous and subcutaneous injection at dose of […] (the dose was calculated based on polypeptide). […]
# [2] = Stability in SD rat serum system in vitro (UPLC-RP)
# Description: Assess the stability of lysyl bradykinin/bradykinin by evaluating its stability in serum system in vitro. 2 mg/ml peptide and SD rat serum were mixed at volume ratio of 85:15, incubated at 37° C. for 30 min, 60 min, 90 min, 120 min, 180 min, etc, terminate by adding 3% trichloroacetic acid (50% volume of the above mixture system with peptide and serum) and effectively remove matrix interference in the serum. Further monitor the degradation of peptide samples in the serum system to evaluate its stability basing on UPLC-RP-UV214 nm method. RP analysis method: Protein BEH C4 2.1×150 mm as chromatographic column, 1.7 μm, column temperature 30° C., mobile phase A: 0.1% TFA/H2O, mobile phase B: 0.1% TFA/ACN, gradient: 0-5 min, 5% B; 5-10 min, 5-40% B; 10-30 min, 40-60% B; 30-32 min, 60-100% B; 32 to 35 min, 5% B.
# The stability of PEG conjugates of lysyl bradykinin and its variants was indirectly evaluated by evaluating their stability in serum system in vitro, as determined in Example 2.
# [3] = subcutaneous 30 mg in adults; cited from earlier work
# B2 receptor = target: T1, B2 receptor (Homo sapiens, UniProt P30411); assay: B2 receptor reporter gene assay in B2-NFAT-CHO-K1 cells; assay type: cell-based; settings: Table 3-1; relative activity calculated from EC50, wild type Lys-BK = 100%
# T1 construct: expressed in transfected cells; host or cells: CHO-K1
# T1 sequence (P30411 1-391): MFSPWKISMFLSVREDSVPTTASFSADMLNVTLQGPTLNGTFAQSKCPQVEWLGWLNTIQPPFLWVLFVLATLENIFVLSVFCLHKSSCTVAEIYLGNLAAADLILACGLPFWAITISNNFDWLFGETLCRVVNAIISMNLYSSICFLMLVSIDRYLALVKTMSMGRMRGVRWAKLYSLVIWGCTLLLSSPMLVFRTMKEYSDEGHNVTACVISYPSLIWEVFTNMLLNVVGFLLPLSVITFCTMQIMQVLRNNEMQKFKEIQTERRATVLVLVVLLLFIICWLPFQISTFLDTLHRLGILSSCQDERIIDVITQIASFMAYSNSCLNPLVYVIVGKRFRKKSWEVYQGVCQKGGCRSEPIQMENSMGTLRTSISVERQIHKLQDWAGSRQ
# Description: The pharmacological action of lysyl bradykinin/bradykinin in vivo is achieved by binding to B2 receptors and activating downstream signaling pathways
# The cell line B2-NFAT-CHO-K1 stably transfected with B2 receptor reporter gene was constructed based on CHO-K1 host cells and the cell library was constructed. The B2-NFAT-CHO-K1 cell library was used to evaluate the binding activity of lysyl bradykinin/bradykinin or its variants or PEG modified products to B2 receptor in vitro.
# Detection methods: The cells were cultured in 96-well plates at 5×10^4 cells/well, 37° C., 5% CO2 for 16-20 hours, and then gradient diluted standard and test solutions were added. After 5 hours, added Bio-Lite luciferase detection reagent and the chemiluminescence intensity was measured. GraphPad was used to make four-parameter equation curve and calculate the relative activity according to the EC50 value.
# (§1) In vitro B2-receptor affinity activity and activity of activating downstream signaling pathway of PEG conjugates of lysyl bradykinin and its variants were tested, as in Example 3.
# [4] = test system: p-CREB and p-ERK1/2, B2 receptor downstream signals; assay: Western blot of p-ERK1/2 and p-CREB in CHO-K1 cells overexpressing B2 receptor; assay type: cell-based; settings: FIG. 5
# Description: as §1
# [5] = Table 2-1, 2 mg/ml peptide : SD rat serum 85:15 v/v, 37° C., sampled 30-180 min
compound,measurement,setting,value
"CC1=NN(c2ccccc2)C(=O)C1 [Edaravone, reference compound]",Neurological deficit symptoms compared with the model group (in words),[1],significant improvement in neurological deficit symptoms
same,Cerebral infarct size compared with the model group (in words),[1],significant improvement in cerebral infarct size
same,Neurological deficit symptom score,"[1]; Table 6-1, intravenous 6 mg/kg once 2 h after reperfusion, Mean ± SE, model group 3.13 ± 0.09",2.40 ± 0.13
same,Cerebral infarct size (%),"[1]; Table 6-2, intravenous 6 mg/kg, Mean ± SE, model group 48.50 ± 1.66",34.12 ± 2.35 %
N=C(N)NCCC[C@H](NC(=O)[C@H](Cc1ccccc1)NC(=O)[C@@H]1CCCN1C(=O)[C@H](CO)NC(=O)[C@H](Cc1cccs1)NC(=O)CNC(=O)[C@@H]1CCCN1C(=O)[C@@H]1CCCN1C(=O)[C@H](CCCNC(=N)N)NC(=O)[C@H](CCCNC(=N)N)NC(=O)[C@@H](N)CCCCN)C(=O)O [Lys-BKm11] (H-KRRPPG[2Thi]SPFR-OH; N-terminus and C-terminus assumed),Residual time in serum system,[2]; [5],60~90 min
N=C(N)NCCC[C@H](NC(=O)[C@H](Cc1ccccc1)NC(=O)[C@@H]1CCCN1C(=O)[C@H](CO)NC(=O)[C@H](Cc1cccs1)NC(=O)CNC(=O)[C@@H]1CCCN1C(=O)[C@@H]1CCCN1C(=O)[C@H](CCCNC(=N)N)NC(=O)[C@H](CCCCN)NC(=O)[C@H](CCCNC(=N)N)NC(=O)[C@H](Cc1ccccc1)NC(=O)[C@@H]1CCCN1C(=O)[C@H](CO)NC(=O)[C@H](Cc1cccs1)NC(=O)CNC(=O)[C@@H]1CCCN1C(=O)[C@@H]1CCCN1C(=O)[C@H](CCCNC(=N)N)NC(=O)[C@@H](N)CCCCN)C(=O)O [Lys-BKm14] (H-KRPPG[2Thi]SPFRKRPPG[2Thi]SPFR-OH; N-terminus and C-terminus assumed),Residual time in serum system,[2]; [5],90 to 120 min
N=C(N)NCCC[C@H](NC(=O)[C@H](Cc1ccccc1)NC(=O)[C@@H]1CCCN1C(=O)[C@H](CO)NC(=O)[C@H](Cc1cccs1)NC(=O)CNC(=O)[C@@H]1CCCN1C(=O)[C@@H]1CCCN1C(=O)[C@H](CCCNC(=N)N)NC(=O)[C@H](CCCNC(=N)N)NC(=O)[C@H](CCCNC(=N)N)NC(=O)[C@@H](N)CS)C(=O)O [Lys-BKm16] (H-CRRRPPG[2Thi]SPFR-OH; N-terminus and C-terminus assumed),Residual time in serum system,[2]; [5],60~90 min
NC(N)=NCCC[C@@H](N)C(=O)N[C@@H](CCCN=C(N)N)C(=O)N1CCC[C@H]1C(=O)N1C[C@H](O)C[C@H]1C(=O)NCC(=O)N[C@@H](Cc1cccs1)C(=O)N[C@@H](CO)C(=O)N1Cc2ccccc2C[C@@H]1C(=O)N1[C@H](C(=O)N[C@@H](CCCN=C(N)N)C(=O)O)C[C@@H]2CCCC[C@@H]21 [icatibant],peak blood concentration,[3],405 ng/mL
same,time to peak blood concentration,[3],1.79 h
Lys-BK-SPA5K: wild-type Lys-BK N-terminally single-modified with straight-chain M-SPA-5K PEG (about 5 kDa),Residual time in serum system,[2],>360 min
same,Neurological deficit symptoms compared with the model group (in words),[1],significant improvement in neurological deficit symptoms
same,Cerebral infarct size compared with the model group (in words),[1],significant improvement in cerebral infarction area
same,Neurological deficit symptom score,"[1]; Table 6-1, intravenous 3 mg/kg once 2 h after reperfusion, Mean ± SE, model group 3.13 ± 0.09",2.38 ± 0.15
same,Cerebral infarct size (%),"[1]; Table 6-2, intravenous 3 mg/kg, Mean ± SE, model group 48.50 ± 1.66",34.84 ± 2.90 %
same,Neurological deficit symptom score,"[1]; Table 7-1, intravenous injection 3 mg/kg, model group 2.69 ± 0.12",2.13 ± 0.18
same,Cerebral infarct size (%),"[1]; Table 7-1, intravenous injection 3 mg/kg, model group 38.73 ± 1.99",24.73 ± 3.15 %
same,Neurological deficit symptom score,"[1]; Table 9-1, oral administration once 6 mg/kg, model group 2.12 ± 0.17",1.60 ± 0.17
same,Cerebral infarct size (%),"[1]; Table 9-1, oral administration once 6 mg/kg, model group 29.23 ± 4.32",22.82 ± 2.56%
"Lys-BKm08: variant peptide PG{THI}SPFR, SEQ ID NO 9 (PG[2Thi]SPFR)",Relative affinity activity,B2 receptor,<10%
"Lys-BKm09: variant peptide {THI}SPFR, SEQ ID NO 10 ([2Thi]SPFR)",Relative affinity activity,B2 receptor,0%
"Lys-BKm10: variant peptide SPFR, SEQ ID NO 11",Relative affinity activity,B2 receptor,0%
Lys-BKm13-SPA5K: Lys-BKm13 N-terminally single-modified with M-SPA-5K PEG ({M‑SPA‑5K}-CRRPPG[2Thi]SPFR),"Activity of activating phosphorylation of ERK1/2 and CREB, PEG conjugates (in words)",[4],highest activity among different peptide variants
same,Neurological deficit symptoms and cerebral infarction area compared with the model group (in words),"[1]; Example 9, intravenous and subcutaneous injection 4.5 mg/kg",significant improvement in neurological deficit symptoms and cerebral infarction area
same,Neurological deficit symptom score,"[1]; Table 7-4, intravenous injection 3 mg/kg, model group 3.00 ± 0.10",2.13 ± 0.15
same,Cerebral infarct size (%),"[1]; Table 7-4, intravenous injection 3 mg/kg, model group 38.79 ± 2.01",23.54 ± 1.99 %
same,Neurological deficit symptom score,"[1]; Table 7-6, subcutaneous injection 4.5 mg/kg, model group 3.00 ± 0.09",2.69 ± 0.12
same,Cerebral infarct size (%),"[1]; Table 7-6, subcutaneous injection 4.5 mg/kg, model group 41.40 ± 1.83",36.07 ± 2.47%
same,Neurological deficit symptom score,"[1]; Table 8-1, intravenous injection 4.5 mg/kg, model group 2.80 ± 0.11",2.19 ± 0.16
same,Cerebral infarct size (%),"[1]; Table 8-1, intravenous injection 4.5 mg/kg, model group 38.45 ± 2.16",25.16 ± 2.36 %
same,Neurological deficit symptom score,"[1]; Table 8-1, subcutaneous injection 4.5 mg/kg, model group 2.80 ± 0.11",2.25 ± 0.17
same,Cerebral infarct size (%),"[1]; Table 8-1, subcutaneous injection 4.5 mg/kg, model group 38.45 ± 2.16",26.06 ± 2.69 %
